The values that follow come from patent publication US20100069393A1, “METHOD OF TREATMENT AND AGENTS USEFUL FOR SAME” (PRANA BIOTECHNOLOGY LIMITED, priority 2006, published 2010).

The nature of data set [1]: Cytotoxicity: viability of M17 cells. To be noted: human, M17 neuroblastoma cells, Cytotoxicity (% viable at 1 and 10 uM); for viability at 1 uM: test compound 1 uM; for viability at 10 uM: test compound 10 uM.
The nature of data set [2]: Neurotoxicity assay: MTS viability of primary cortical neuronal cultures. The data set is classed as cell-based, mouse. The following applies: BL6Jx129sv, mouse, primary cortical neuronal cultures, Neuronal cells, read-out: Cytotoxicity (% viable at 1 and 10 uM); for viability at 4 days, 1 uM: test compound 1 uM; for viability at 4 days, 10 uM: test compound 10 uM. As for the experimental part:
Media was then replaced with Neurobasal media (Invitrogen Life Technologies) and B27 supplements (Invitrogen Life Technologies). Cultures were maintained at 37° C. in 5% CO2. Prior to experimentation, the culture medium was replaced with Neurobasal media and B27 minus antioxidants (Invitrogen Life Technologies).
Cell viability is determined using the MTS assay. Culture medium is replaced with fresh neurobasal medium plus B27 supplements minus antioxidants. 1/10th volume MTS solution (Cell Titre 96 Aqueous One, Promega Corporation) and incubated at 37° C., 2 hrs. 200 microlitre aliquots are measured with a spectrophotometer at 560 nm.
Neuronal cortical cells were cultured for five days as per Assay 2 in NB media and B27 supplement.
On day six the test compounds were added to the neuronal cell cultures in NB media and B27 supplement minus antioxidants.
Test compounds were dissolved in 100% DMSO to a concentration of 2.5 mM (10 mM if excess compound was weighed out per vial—then diluted to 2.5 mM). […] Test compounds were not added directly to cells, instead they were added to a 48 well ‘Drug Plate’ as comprised below:
The Drug Plate was incubated at 37° C. for 15 mins. 200 μl of each well was added in triplicate to the corresponding cell plate. The cell plate was incubated at 37 C, for 4 days.
On completion of the assay, 1/10 volume MTS was added per well of plate (i.e. 25 μl/250 μl). The plates were incubated at 37 C for 2 hrs, and then absorbance was read at 560 nm.

Take `CCn1cnc2c(O)ccc(Cl)c2c1=O`: in data set [1], the viability at 1 uM was 101% and the viability at 10 uM was 85.4%.
Taken in the same sequence, the figures for `CCCc1cnc2c(O)c(Cl)ccn2c1=O` were 98.1% and 38.9%.
With `CCCn1cnc2c(O)ccc(Cl)c2c1=O`, in data set [1], the viability at 1 uM was 89.4% and the viability at 10 uM was determined as 79.4%.
For `CCN(CC)C(=O)Cn1cnc2c(O)cccc2c1=O`, in that order: 118% and 102%.
Taken in the same sequence, the figures for `O=c1c2cccc(O)c2ncn1Cc1nc2ccccc2[nH]1` were 107% and 108%.
On to `O=C(Nc1cnc2ccccc2c1)c1cnc2c(O)cccn2c1=O`, for which, in data set [1], the viability at 1 uM amounted to 102% and the viability at 10 uM stood at 32.8%.
For `CCC(C)Cn1cnc2c(O)c(I)ccc2c1=O` (stereo not shown), in that order: 42.8% and 19.3%.
Turning to `O=c1c2ccc(I)c(O)c2ncn1CCNS(=O)(=O)c1ccc(F)cc1`, in data set [1], the viability at 1 uM came out at 96.5% and the viability at 10 uM was 43%.
In the case of `O=c1c2c(Cl)cc(Cl)c(O)c2ncn1CC1CCN(Cc2ccccc2)CC1`, in data set [1], the viability at 1 uM came out at 109% and the viability at 10 uM is 83.4%.
Taken in the same sequence, the figures for `CCN(CC)C(=O)Cn1cnc2c(O)c(Cl)cc(Cl)c2c1=O` were 122% and 104%.
For `O=c1c2cccc(O)c2ncn1Cc1ccccn1`, in that order: 109% and 96%.
For `O=c1c2cccc(O)c2ncn1CC1CC1`, in that order: 104% and 111%.
`O=c1c2cccc(O)c2ncn1-c1cccnc1`: in data set [1], the viability at 1 uM was 106% and the viability at 10 uM was found to be 110%.
For `CCCS(=O)(=O)NCCn1cnc2c(O)c(I)ccc2c1=O`, in data set [1], the viability at 1 uM amounted to 104% and the viability at 10 uM is 98.6%.
Taken in the same sequence, the figures for `O=C1c2ccccc2C(=O)N1CCn1cnc2c(O)cccc2c1=O` were 104% and 106%.
For `O=c1c2ccc(I)c(O)c2ncn1-c1ccc(F)cc1`, in that order: 94.6% and 30.2%.
Taken in the same sequence, the figures for `CCCCc1cnc2c(O)c(-c3ccc(F)cc3)ccn2c1=O` were 101% and 37.9%.
For the molecule `CCN(CC)C(=O)Cn1cnc2c(O)c(I)ccc2c1=O`, in data set [1], the viability at 1 uM turned out to be 92.2% and the viability at 10 uM is 98.7%.
Consider `CCCCc1cnc2c(O)c(-c3ccc(OC)cc3)ccn2c1=O`, for which, in data set [1], the viability at 1 uM came out at 79.2% and the viability at 10 uM was 64.4%.
For `CCCCCn1cnc2c(O)c(I)ccc2c1=O`, in that order: 86.3% and 38.5%.
For `O=c1c2c(Cl)cc(Cl)c(O)c2ncn1CCNC1CC1`, in that order: 98.8% and 96.2%.
Taken in the same sequence, the figures for `CNS(=O)(=O)Cc1ccc(-n2cnc3c(O)c(Cl)cc(Cl)c3c2=O)cc1` were 93% and 98%.
`O=C(Nc1ccc(F)cc1F)c1cnc2c(O)cccn2c1=O`: in data set [1], the viability at 1 uM is 99.4% and the viability at 10 uM is 67.1%.
Taken in the same sequence, the figures for `O=c1c2cccc(O)c2ncn1-c1ccc(F)cc1` were 92.7% and 67.5%.
On to `Oc1c(-c2ccccc2F)cc(Cl)c2cccnc12`, for which, in data set [2], the viability at 4 days, 1 uM stood at 96% and the viability at 4 days, 10 uM worked out at 54%.
For `Oc1ccc(/C=C/c2ccc3cccc(O)c3n2)cc1`, in that order: 100% and 75%.
Regarding `CC(=O)Nc1ccc2cccc(O)c2n1`, in data set [2], the viability at 4 days, 1 uM is 93% and the viability at 4 days, 10 uM is 89%.
Taken in the same sequence, the figures for `O=C(NCCc1cnc[nH]1)c1cc(O)c2cccc(O)c2n1` were 100% and 100%.
For `COc1ccccc1-c1cc(-c2ccccc2OC)c2cccnc2c1O`, in that order: 100% and 52%.
For `Oc1c(Cl)cc(Cl)c2cccnc12`, in that order: 98% and 75%.
As for `CN(C)c1ccc(-c2cc(Cl)c3cccnc3c2O)cc1`, in data set [2], the viability at 4 days, 1 uM worked out at 94% and the viability at 4 days, 10 uM came out at 85%.
For `N#Cc1ccc2cccc(O)c2n1`, in that order: 94% and 97%.
Regarding `NCc1ccc2c(Cl)cc(Cl)c(O)c2n1`, in data set [2], the viability at 4 days, 1 uM came out at 100% and the viability at 4 days, 10 uM was 80%.
Taken in the same sequence, the figures for `Cc1ccccc1-c1cc(I)c(O)c2ncccc12` were 99% and 38%.
Taken in the same sequence, the figures for `Oc1c(-c2ccccc2)cc(-c2ccccc2)c2cccnc12` were 97% and 26%.
For `Cc1cnc(NC(=O)c2ccc3cccc(O)c3n2)s1`, in that order: 94% and 68%.
On to `Oc1c(Cl)cc(Cl)c2ccc(-c3ccccn3)nc12`, for which, in data set [2], the viability at 4 days, 1 uM was found to be 55% and the viability at 4 days, 10 uM turned out to be 31%.
Taken in the same sequence, the figures for `Oc1c(-c2ccc(F)cc2F)cc(Cl)c2cccnc12` were 90% and 42%.
Taken in the same sequence, the figures for `N=C(N)NCc1ccc2cccc(O)c2n1` were 100% and 89%.
For `Oc1cccc2c(=S)n(Cc3ccccn3)cnc12`, in that order: 97% and 90%.
As for `Oc1c(I)cc(I)c2cccnc12`, in data set [2], the viability at 4 days, 1 uM came out at 91% and the viability at 4 days, 10 uM amounted to 95%.
As to `Cc1cnc2c(Cl)cc(Cl)c(O)c2n1`, in data set [2], the viability at 4 days, 1 uM came to 100% and the viability at 4 days, 10 uM was 93%.
As to `O=C(O)c1ccc2c(Cl)cc(Cl)c(O)c2n1`, in data set [2], the viability at 4 days, 1 uM worked out at 88% and the viability at 4 days, 10 uM worked out at 80%.
Taken in the same sequence, the figures for `CNCc1ccc2c(Cl)cc(Cl)c(O)c2n1` were 86% and 78%.
For `O=Cc1ccccc1-c1cc(Cl)c2cccnc2c1O`, in that order: 109% and 99%.
For `Oc1c(I)cc(-c2ccccc2F)c2cccnc12`, in that order: 92% and 34%.
Take `O=S(=O)(O)c1cc(I)c(O)c2ncccc12`: in data set [2], the viability at 4 days, 1 uM stood at 70% and the viability at 4 days, 10 uM was determined as 71%.
Consider `Cc1ccccc1-c1cc(Cl)c2cccnc2c1O`, for which, in data set [2], the viability at 4 days, 1 uM was determined as 100% and the viability at 4 days, 10 uM worked out at 100%.
For the molecule `Oc1cccc2ccc(CN(Cc3ccccn3)Cc3ccccn3)nc12`, in data set [2], the viability at 4 days, 1 uM worked out at 87% and the viability at 4 days, 10 uM came out at 23%.
Taken in the same sequence, the figures for `O=C(CNC(=O)c1cc(O)c2cccc(O)c2n1)NCc1ccccn1` were 93% and 93%.
Taken in the same sequence, the figures for `CN(c1ccccn1)c1ccc2c(Cl)cc(Cl)c(O)c2n1` were 100% and 59%.
Taken in the same sequence, the figures for `Oc1c(Cl)cc(-c2cccnc2)c2cccnc12` were 101% and 84%.
On to `Oc1cccc2ccc(-n3cncn3)nc12`, for which, in data set [2], the viability at 4 days, 1 uM amounted to 102% and the viability at 4 days, 10 uM was determined as 97%.
